Read-outs that look alike come from different tables or passages of the source.
Assays:
[1] = target: human Golgi α-mannosidase II (α-hGMII) (Homo sapiens (Human), UniProt Q16706); experiment: Golgi α-mannosidase II (α-hGMII) activity assay, 4-MU-α-D-mannopyranoside substrate; format: biochemical; conditions: for IC50: pH 7.0, 37° C., 2 h; for Selectivity Index (SI): selectivity toward α-hGMII than α-hLM
Procedure: (§1) Compounds were diluted to give the final concentration of 100 μM and mixed with 4-MU-α-D-mannopyranoside as substrate and human Golgi α-mannosidase II in phosphate buffer (0.1 M Sodium phosphate dibasic, pH 7.0) or human lysosomal α-mannosidase in citric phosphate buffer (0.1 M Sodium phosphate monobasic monohydrate, 0.5 mM citric acid monohydrate, pH 4.6). The assay was carried out at 37° C. for a certain time (1 h for α-hLM, 2 h for α-hGMII). Stop solution (0.5 M K2CO3(aq), pH 10.8) was then added to the reactions and the fluorescence was determined at 355 nm excitation and 460 nm emission (SpectraMax M5, Molecular Devices). Inhibition was performed as relative enzyme activity to control. The active compounds were selected for libraries preparation and further tested at lower concentration to determine their IC50 values. The assays performed in 384-wells of the microtiter plates.

[2] = target: human lysosomal α-mannosidase (α-hLM) (Homo sapiens (Human), UniProt O00754); experiment: α-Mannosidase (α-hLM) activity assay, 4-MU-α-D-mannopyranoside substrate; format: biochemical; conditions: pH 4.6, 37° C., 1 h
Chain of human lysosomal α-mannosidase (α-hLM) (O00754 50-1011): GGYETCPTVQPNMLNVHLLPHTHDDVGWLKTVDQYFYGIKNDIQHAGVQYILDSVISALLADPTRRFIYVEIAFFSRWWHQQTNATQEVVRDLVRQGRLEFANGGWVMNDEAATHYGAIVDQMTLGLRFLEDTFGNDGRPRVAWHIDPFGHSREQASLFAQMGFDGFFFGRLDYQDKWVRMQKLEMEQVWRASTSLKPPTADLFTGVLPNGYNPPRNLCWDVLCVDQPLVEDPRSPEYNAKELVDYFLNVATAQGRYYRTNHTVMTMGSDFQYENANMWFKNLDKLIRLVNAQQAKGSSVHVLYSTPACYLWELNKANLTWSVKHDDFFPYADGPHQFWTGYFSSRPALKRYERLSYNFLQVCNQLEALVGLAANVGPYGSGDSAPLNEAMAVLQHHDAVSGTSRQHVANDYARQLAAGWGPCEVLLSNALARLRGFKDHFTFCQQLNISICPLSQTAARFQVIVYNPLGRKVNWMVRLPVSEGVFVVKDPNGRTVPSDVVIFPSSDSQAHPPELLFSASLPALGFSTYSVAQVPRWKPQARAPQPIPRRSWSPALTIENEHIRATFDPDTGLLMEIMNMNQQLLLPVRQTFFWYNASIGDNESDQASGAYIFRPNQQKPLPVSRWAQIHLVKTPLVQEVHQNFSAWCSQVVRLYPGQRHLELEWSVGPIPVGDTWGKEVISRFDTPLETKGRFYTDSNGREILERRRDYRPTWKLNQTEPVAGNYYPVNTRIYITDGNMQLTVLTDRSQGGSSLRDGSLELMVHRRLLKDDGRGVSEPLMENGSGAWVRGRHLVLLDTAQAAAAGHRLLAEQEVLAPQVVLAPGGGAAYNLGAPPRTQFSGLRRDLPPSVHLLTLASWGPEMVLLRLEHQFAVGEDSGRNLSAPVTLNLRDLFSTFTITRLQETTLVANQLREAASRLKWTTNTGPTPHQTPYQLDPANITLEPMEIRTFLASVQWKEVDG
Procedure: as §1

[3] = Serum biochemistry assay in Huh7 xenograft mice; format: in vivo, NOD-SCID mice; conditions: 30 mg/kg i.p., twice a week; for ALT / AST / BUN / CRE / TBIL: serum
Procedure: All blood specimens were collected in tubes and were left at 25° C. for 30 min to clot and centrifuged for 10 min at 1200 g. The concentrations of the following biochemical serum analytes collected were measured with FUJI DRI-CHEM 500i analyzer (FUJIFILM Corp., Tokyo, Japan) using the manufacturer's reagents and according to the manufacturer's instructions: Alanine Aminotransferase ALT), Aspartate Aminotransferase (AST), Blood Urea Nitrogen (BUN), Creatinine (CRE) and Total Bilirubin (TBIL).
(§2) HCC xenografts were established in 5-6 weeks old NOD-SCID mice by subcutaneous inoculation of about 5×10^6 Huh7 cells suspended in 50 μL PBS+50 μL, Matrigel (Corning, 394230) in the left and right flanks of each mouse. After one week of inoculation, tumors were palpable and the mice were assigned randomly to 1 of 4 treatment groups. Group 1 (vehicle control group, n=6) mice only received a vehicle solution containing Kolliphor EL (Sigma Aldrich, C5135), 99.9% ethanol and water in a ratio of 1:1:6. Groups 2, 3, 4 and 5 mice were intraperitoneally injected with the test compound (e.g., compound ACK900, ACK901, or ACK902) (30 mg/kg, ip, n=7/group) or sorafenib (30 mg/kg, ip, n=6/group), twice per week for 25 days. The tumor volume was calculated by the formula of a ratioinal ellipsoid: [0.5236×short axis) m1^2×(long axis)m^2], and the tumor volume was measured twice per week. All mice were sacrificed at 27 days after the treatment started. Tumor tissues were isolated, photographed and weighted.
In vivo tumor growth inhibition studies in human Huh7 xenograft rodents were performed in accordance with procedures as described in the “Material and Method” section. Xenograft tumors were generated by implanting Huh7 cells (5×10^6) subcutaneously into the left and right flanks of each NOD-SCID mouse. Starting on the 7th day after the inoculation of Huh7 cells, the mice were injected with ACK900, ACK901, ACK902 or sorafenib intraperitoneally (i.p.) at a dose of 30 mg/kg and twice a week for 34 days.

Huh7 cells [4] = conditions: Data from Int. J. Med. Sci. 2017, 14, 523; cited from earlier work
Huh7 xenograft tumors = experiment: Human hepatocarcinoma (HCC) Huh7 cells xenograft animal model; format: in vivo, NOD-SCID mice; conditions: 30 mg/kg i.p., twice a week
Text: A total of 34 NOD-SCID mice to (5- to 6-week-old) were maintained in micro-isolator units on a standard laboratory diet. Animals were housed under humidity- and temperature-controlled conditions and the light/dark cycle was set at 12-hour intervals, maintained under specified and opportunistic pathogen-free conditions. Mice were quarantined at least 1 week before experimental manipulation
as §2, with “weighted. […]” for “weighted.”

HepG2 cells [5] = conditions: Data from Int. J. Med. Sci. 2017, 14, 523; cited from earlier work
PANC-1 cells [6] = experiment: Transwell invasion assay; format: cell-based, human; conditions: PANC-1, transwell
Procedure: (§3) Chemotaxis experiments with human HepG2Huh7, or PANC-1 cells were assayed by using transwells (Millipore). The cells to be analyzed (5×10^4 cells/well) were seeded in the upper chambers of the 24-well plate in 400 μL serum-free medium. FBS (10%) was used as the chemoattractant with or without different concentrations of the test compound (e.g., ACK900, ACK901, ACK902) in the lower chamber, and the plate was incubated under standard conditions. After incubation for 18 hours, the media in the upper chambers were aspirated and washed with phosphate-buffered saline (PBS) twice. Both non-migrated and migrated cells were fixed with 4% paraformaldehyde (PFA) for 30 minutes at room temperature, stained with 2% crystal violet solution. The non-invading cells were removed from the upper surface of the insert membrane with a cotton swab. The images were taken using an imaging reader (Cytation 5, BioTek, VT, U.S.A.) and analyzed using NIH ImageJ software. Percent in the results represent percent of initial number of cells in the migrating and nonmigrating Cell fractions.

Huh7 cells [7] = experiment: Transwell invasion assay; format: cell-based, human
Procedure: as §3

MDA-MB-231 cells = experiment: Anti-proliferative activity assay (CellTiter-Glo); format: cell-based, human
Procedure: (§4) Human liver cancer HepG2 cells and Huh7 cells, breast cancer MDA-MB-231 cells, pancreatic cancer PANC-1 cells, and non-small cell lung (NSCL) cancer H1975 cells were maintained in Dulbecco's Modified Eagle Medium supplemented containing 10% fetal bovine serum (FBS), 100 units/ml penicillin and […] streptomycin in 37° C. incubator with 5% CO2.
(§5) Anti-proliferative activity of HepG2, Huh7 or PANC-1 cells was determined by 3-(4,5-dimethylthiazol-2-yl)-2,5-diphenyltetrazolium bromide (MTT) assay, while that of H1975 or MDA-MB-231 cells was determined by luminescent assay with the aid of commercial kit CellTiter-Glo® (Promega).
(§6) For H1975 and MDA-MB-231, cells were respectively seeded at 5×10^3 cells/well in 96-well plates and maintained for 14-16 hours. Cells were treated with dimethylsulfoxide (DMSO) or test compounds in varied concentrations for 48 h. Cell viability was monitored using Cell-TiterGlo (Promega), a kit that measures the quantity of ATP present in the cell culture, an indicator of metabolically active cells. The IC50 values of death cell lines were calculated accordingly.

H1975 cells = experiment: Anti-proliferative activity assay (CellTiter-Glo); format: cell-based, human; conditions: 48 h
Procedure: as §4, §5, §6

[8] = tested on: all cancer cell lines (HepG2, Huh7, PANC-1, H1975, MDA-MB-231); experiment: Anti-proliferative activity, pooled statement over all cancer cell lines; format: cell-based, human; conditions: read-out: half maximum inhibitory concentration (IC50), range in all cancer cell lines
Procedure: as §5
(§7) Cancer cells including HepG2, Huh7 and PANC-1 cells were respectively seeded at 10^4, 4×10^3, and 5×10^3 cells/well in 96-well plates and maintained for 14-16 hours. Cells were treated with dimethylsulfoxide (DMSO) or test compounds in varied concentrations for 72 h. Cells were then washed with PBS twice, added a medium containing 3-(4,5-dimethylthiazol-2-yl)-2,5-diphenyltetrazolium bromide (MTT) at a final concentration of 0.5 mg/mL, and incubated for 4 h at 37° C. in a humidified incubator containing 5% CO2 in air. Cells having functional succinate dehydrogenase of mithchondria would convert MTT to formazan. Then, the medium was replaced with 100 μL of DMSO for 30 min at room temperature, and the 96-well plate was read by an ELISA reader at 550 nm to get the absorbance density values. The IC50 values of death cell lines were calculated accordingly.
as §6

PANC-1 cells [9] = experiment: Anti-proliferative activity assay (MTT); format: cell-based, human; conditions: 72 h
Procedure: as §4, §5, §7

HepG2 cells [10] = experiment: Anti-proliferative activity assay (MTT); format: cell-based, human; conditions: 72 h
Procedure: as §4, §5, §7

Huh7 cells [11] = experiment: Anti-proliferative activity assay (MTT); format: cell-based, human; conditions: 72 h
Procedure: as §4, §5, §7

PANC-1 cells [12] = experiment: Transwell migration assay; format: cell-based, human; conditions: PANC-1, transwell, 18 hours
Procedure: as §3

Huh7 cells [13] = experiment: Transwell migration assay; format: cell-based, human; conditions: 18 hours
Procedure: as §3

Chain of human Golgi α-mannosidase II (α-hGMII) (Q16706 whole entry): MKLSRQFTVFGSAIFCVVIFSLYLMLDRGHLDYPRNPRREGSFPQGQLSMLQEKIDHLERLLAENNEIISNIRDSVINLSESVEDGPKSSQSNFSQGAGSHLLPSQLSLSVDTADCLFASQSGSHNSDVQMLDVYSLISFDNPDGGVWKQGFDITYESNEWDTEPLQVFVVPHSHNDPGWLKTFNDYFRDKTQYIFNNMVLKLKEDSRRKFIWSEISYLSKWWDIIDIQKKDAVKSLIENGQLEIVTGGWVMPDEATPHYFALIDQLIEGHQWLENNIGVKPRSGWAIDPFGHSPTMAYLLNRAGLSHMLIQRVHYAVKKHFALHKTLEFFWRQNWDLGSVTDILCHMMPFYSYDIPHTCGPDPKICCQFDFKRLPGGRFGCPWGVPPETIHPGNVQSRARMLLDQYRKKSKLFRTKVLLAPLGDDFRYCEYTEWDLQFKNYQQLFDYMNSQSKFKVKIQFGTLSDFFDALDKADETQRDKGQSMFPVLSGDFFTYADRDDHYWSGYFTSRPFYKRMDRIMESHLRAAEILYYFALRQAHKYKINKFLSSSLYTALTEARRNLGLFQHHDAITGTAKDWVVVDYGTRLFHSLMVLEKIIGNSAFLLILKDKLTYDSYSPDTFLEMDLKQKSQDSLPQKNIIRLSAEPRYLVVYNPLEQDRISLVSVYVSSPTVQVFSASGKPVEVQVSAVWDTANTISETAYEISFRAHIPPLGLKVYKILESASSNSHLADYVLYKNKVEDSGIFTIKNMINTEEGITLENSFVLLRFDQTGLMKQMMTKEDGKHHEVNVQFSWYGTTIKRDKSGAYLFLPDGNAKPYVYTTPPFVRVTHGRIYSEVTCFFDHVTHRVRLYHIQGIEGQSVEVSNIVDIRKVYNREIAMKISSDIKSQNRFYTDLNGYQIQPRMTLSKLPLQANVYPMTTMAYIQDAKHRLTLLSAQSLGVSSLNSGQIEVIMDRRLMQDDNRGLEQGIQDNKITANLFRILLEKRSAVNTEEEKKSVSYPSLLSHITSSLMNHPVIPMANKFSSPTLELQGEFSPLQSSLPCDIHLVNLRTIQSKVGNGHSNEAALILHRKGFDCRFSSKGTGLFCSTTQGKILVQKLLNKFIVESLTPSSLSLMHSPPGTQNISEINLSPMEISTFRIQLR

Compound | IC50 [1] [nM] | Selectivity Index (SI) [1] | IC50 [2] [nM] | BUN [3] [mg/dL] | CRE [3] [mg/dL] | TBIL [3] [mg/dL] | ALT [3] [U/L] | AST [3] [U/L] | further results
O=C(NC[C@@H]1[C@@H](O)[C@@H](O)[C@H]2[C@H](O)CCCN21)c1ccc(-c2ccccc2)cc1 [ACK903] | 190 | 3.4 | 650 |  |  |  |  |  | 
CNC(=O)c1cc(Oc2ccc(NC(=O)Nc3ccc(Cl)c(C(F)(F)F)c3)cc2)ccn1 [Sorafenib, sorafenib, reference compound] |  |  |  | 23 ± 2.53 | 0.35 ± 0.19 | 0.73 ± 0.32 | 61.33 ± 54.45 | 135.33 ± 90.76 | serious side effects including hepatoxicity and nephrotoxicity [3]: no serious side effects including hepatoxicity and nephrotoxicity were observed; IC50 (Huh7 cells [4]): 5970 nM; signs of harm or decreased body weight (Huh7 xenograft tumors): none of the mice injected with ACK900-ACK902 or sorafenib exhibited signs of harm or decreased body weight; tumor volume vs control (Huh7 xenograft tumors; P<0.05): Significant reduction; IC50 (HepG2 cells [5]): 7420 nM
COc1cccc2c1C(=O)c1c(O)c3c(c(O)c1C2=O)C[C@@](O)(C(=O)CO)C[C@@H]3O[C@H]1C[C@H](N)[C@H](O)[C@H](C)O1 [Doxorubicin, doxorubicin, reference compound] |  |  |  |  |  |  |  |  | IC50 (MDA-MB-231 cells; Homo sapiens, MDA-MB-231, 48 h): 1300 to 3000 nM
O[C@H]1[C@H]2[C@H](O)CCCN2C[C@H]1O [Swainsonine, swainsonine, reference compound] | 40 | 2 |  |  |  |  |  |  | 

Further lines, with some results ahead:

IC50 [1] [nM] | Selectivity Index (SI) [1] | IC50 [2] [nM] | BUN [3] [mg/dL] | CRE [3] [mg/dL] | TBIL [3] [mg/dL] | Compound | ALT [3] [U/L] | AST [3] [U/L] | further results
1000 |  | 21500 | 21.87 ± 3.77 | 0.47 ± 0.18 | 0.64 ± 0.37 | CCCCCC[C@H]1CC[C@H](c2ccc(NC(=S)NC[C@@H]3[C@@H](O)[C@@H](O)[C@H]4[C@H](O)CCCN43)cc2)CC1 [ACK901] | 74.85 ± 82.13 | 173.85 ± 95.67 | invasive capability (PANC-1 cells [6]): remarkably decreased; invasive capability (Huh7 cells [7]): remarkably decreased; IC50 (MDA-MB-231 cells; 48 h): 1000 nM; IC50 (H1975 cells): 7700 nM; IC50 [8]: 300 to 19100 nM; IC50 (PANC-1 cells [9]): 300 nM; IC50 (HepG2 cells [10]): 1800 nM; IC50 (Huh7 cells [11]): 1300 nM; migratory capability (PANC-1 cells [12]): remarkably decreased; migratory capability (Huh7 cells [13]): remarkably decreased
1300 | 1.1 | 1500 |  |  |  | O[C@@H]1[C@H](O)[C@@H](CNC(=S)Nc2ccccc2)N2CCC[C@@H](O)[C@H]12 [ACK905] |  |  | 
800 | 1.2 | 950 |  |  |  | COc1ccc(NC(=S)NC[C@@H]2[C@@H](O)[C@@H](O)[C@H]3[C@H](O)CCCN32)cc1 [ACK904] |  |  | 
1600 | 4.3 | 6800 | 23.87 ± 4.30 | 0.43 ± 0.11 | 0.9 ± 0.56 | CCC[C@H]1CC[C@H](c2ccc(C(=O)NC[C@@H]3[C@@H](O)[C@@H](O)[C@H]4[C@H](O)CCCN43)cc2)CC1 [ACK902] | 64.42 ± 57.49 | 250 ± 182.44 | invasive capability (PANC-1 cells [6]): remarkably decreased; invasive capability (Huh7 cells [7]): remarkably decreased; IC50 (MDA-MB-231 cells; 48 h): 9900 nM; IC50 (H1975 cells): 11500 nM; IC50 [8]: 300 to 19100 nM; IC50 (PANC-1 cells [9]): 1600 nM; IC50 (HepG2 cells [10]): 14500 nM; IC50 (Huh7 cells [11]): 3700 nM; migratory capability (PANC-1 cells [12]): remarkably decreased; migratory capability (Huh7 cells [13]): remarkably decreased
